According to patent US8952034B2, “Fused heterocyclic compounds as ion channel modulators” (Gilead Sciences, Inc., priority 2009, dated 2015):

Biological target: wild-type human cardiac sodium channel, hNav1.5 (Homo sapiens, UniProt Q14524)
Experiment: Late INa screening assay (automated whole cell patch clamp, PatchXpress)
Type: cell-based
Details: compound at 1 μM; HEK293 cells expressing hNav1.5; late INa generated with 10 μM Tefluthrin (or 50 nM ATX II); read-out: LateINa_1 uM (percent block of late INa)
Experimental: The late sodium current (Late INa) and peak sodium current (Peak INa) assays are performed on an automated electrophysiology platform, PatchXpress 7000A (MDS Analytical Technologies, Sunnyvale, Calif.), which uses the whole cell patch clamp technique to measure currents through the cell membrane of up to 16 cells at a time. The assay uses an HEK293 (human embryonic kidney) cell line heterologously expressing the wild-type human cardiac sodium channel, hNav1.5, purchased from Millipore (Billerica, Mass.). No beta subunits were coexpressed with the Na channel alpha subunit. Cells are maintained with standard tissue culture procedures and stable channel expression is maintained with 400 μg/ml Geneticin in the culture medium. […] Experiments are carried out at 24-27° C.
For both the Late INa and Peak INa assays, series resistance compensation is set to 50% and whole-cell compensation is performed automatically. […] Currents through open sodium channels are automatically recorded and stored in the DataXpress2 database (MDS Analytical Technologies, Sunnyvale, Calif.). Analysis is performed using DataXpress2 analysis software and data are compiled in Excel.
Compound stocks are routinely made in glass vials to 10 mM in dimethyl sulfoxide (DMSO). In some cases, when compounds are not soluble in DMSO, they are made in 100% ethanol. Stocks are sonicated as necessary. The extracellular solution for screening Late INa is composed of: 140 mM NaCl, 4 mM KCl, 1.8 mM CaCl2, 0.75 mM MgCl2, and 5 mM HEPES with pH adjusted to 7.4 using NaOH. The extracellular solution for screening Peak INa is composed of: 20 mM NaCl, 120 mM N-methyl-D glucamine, 4 mM KCl, 1.8 mM CaCl2, 0.75 mM MgCl2, and 5 mM HEPES with pH adjusted to 7.4 using HCl. The intracellular solution used to perfuse the inside of the cells for both the Late INa and Peak INa assays contains: 120 mM CsF, 20 mM CsCl, 5 mM EGTA, 5 mM HEPES and pH adjusted to 7.4 with CsOH. […] The 0Na extracellular solution used at the end of each experiment for the Late INa and Peak INa assays to measure baseline current contains: 140 mM N-methyl-D-glucamine; 4 mM KCl; 1.8 mM CaCl2; 0.75 mM MgCl2; 5 mM HEPES and pH was adjusted to 7.4 with HCl.
For the Late INa assay, sodium channels are activated every 10 seconds (0.1 Hz) by depolarizing the cell membrane to −20 mV for 250 milliseconds (ms) from a holding potential of −120 mV. In response to a −20 mV voltage step, typical Nav1.5 sodium currents activate rapidly to a peak negative current and then inactivate nearly completely within […].
All compounds are tested to determine their activity in blocking the late sodium current. Late INa current is generated by adding 10 μM Tefluthrin (pyrethroid) to the extracellular solution while recording Na currents For some experiments, 50 nM ATX II (sea anemone toxin), another late INa activator, was used to generate the late component. […] After establishing the whole cell recording configuration, late INa activators are added to each well 4 times over a 16-17 minute period so that the late component of the Na current reaches a stable value. […] Measurements are made at the end of exposure to the third compound addition and values are normalized to the current level when all Na^+ is removed from the extracellular solution after two additions of 0Na-ECF. Results are reported as percent block of late INa

Chain of wild-type human cardiac sodium channel, hNav1.5 (Q14524 whole entry): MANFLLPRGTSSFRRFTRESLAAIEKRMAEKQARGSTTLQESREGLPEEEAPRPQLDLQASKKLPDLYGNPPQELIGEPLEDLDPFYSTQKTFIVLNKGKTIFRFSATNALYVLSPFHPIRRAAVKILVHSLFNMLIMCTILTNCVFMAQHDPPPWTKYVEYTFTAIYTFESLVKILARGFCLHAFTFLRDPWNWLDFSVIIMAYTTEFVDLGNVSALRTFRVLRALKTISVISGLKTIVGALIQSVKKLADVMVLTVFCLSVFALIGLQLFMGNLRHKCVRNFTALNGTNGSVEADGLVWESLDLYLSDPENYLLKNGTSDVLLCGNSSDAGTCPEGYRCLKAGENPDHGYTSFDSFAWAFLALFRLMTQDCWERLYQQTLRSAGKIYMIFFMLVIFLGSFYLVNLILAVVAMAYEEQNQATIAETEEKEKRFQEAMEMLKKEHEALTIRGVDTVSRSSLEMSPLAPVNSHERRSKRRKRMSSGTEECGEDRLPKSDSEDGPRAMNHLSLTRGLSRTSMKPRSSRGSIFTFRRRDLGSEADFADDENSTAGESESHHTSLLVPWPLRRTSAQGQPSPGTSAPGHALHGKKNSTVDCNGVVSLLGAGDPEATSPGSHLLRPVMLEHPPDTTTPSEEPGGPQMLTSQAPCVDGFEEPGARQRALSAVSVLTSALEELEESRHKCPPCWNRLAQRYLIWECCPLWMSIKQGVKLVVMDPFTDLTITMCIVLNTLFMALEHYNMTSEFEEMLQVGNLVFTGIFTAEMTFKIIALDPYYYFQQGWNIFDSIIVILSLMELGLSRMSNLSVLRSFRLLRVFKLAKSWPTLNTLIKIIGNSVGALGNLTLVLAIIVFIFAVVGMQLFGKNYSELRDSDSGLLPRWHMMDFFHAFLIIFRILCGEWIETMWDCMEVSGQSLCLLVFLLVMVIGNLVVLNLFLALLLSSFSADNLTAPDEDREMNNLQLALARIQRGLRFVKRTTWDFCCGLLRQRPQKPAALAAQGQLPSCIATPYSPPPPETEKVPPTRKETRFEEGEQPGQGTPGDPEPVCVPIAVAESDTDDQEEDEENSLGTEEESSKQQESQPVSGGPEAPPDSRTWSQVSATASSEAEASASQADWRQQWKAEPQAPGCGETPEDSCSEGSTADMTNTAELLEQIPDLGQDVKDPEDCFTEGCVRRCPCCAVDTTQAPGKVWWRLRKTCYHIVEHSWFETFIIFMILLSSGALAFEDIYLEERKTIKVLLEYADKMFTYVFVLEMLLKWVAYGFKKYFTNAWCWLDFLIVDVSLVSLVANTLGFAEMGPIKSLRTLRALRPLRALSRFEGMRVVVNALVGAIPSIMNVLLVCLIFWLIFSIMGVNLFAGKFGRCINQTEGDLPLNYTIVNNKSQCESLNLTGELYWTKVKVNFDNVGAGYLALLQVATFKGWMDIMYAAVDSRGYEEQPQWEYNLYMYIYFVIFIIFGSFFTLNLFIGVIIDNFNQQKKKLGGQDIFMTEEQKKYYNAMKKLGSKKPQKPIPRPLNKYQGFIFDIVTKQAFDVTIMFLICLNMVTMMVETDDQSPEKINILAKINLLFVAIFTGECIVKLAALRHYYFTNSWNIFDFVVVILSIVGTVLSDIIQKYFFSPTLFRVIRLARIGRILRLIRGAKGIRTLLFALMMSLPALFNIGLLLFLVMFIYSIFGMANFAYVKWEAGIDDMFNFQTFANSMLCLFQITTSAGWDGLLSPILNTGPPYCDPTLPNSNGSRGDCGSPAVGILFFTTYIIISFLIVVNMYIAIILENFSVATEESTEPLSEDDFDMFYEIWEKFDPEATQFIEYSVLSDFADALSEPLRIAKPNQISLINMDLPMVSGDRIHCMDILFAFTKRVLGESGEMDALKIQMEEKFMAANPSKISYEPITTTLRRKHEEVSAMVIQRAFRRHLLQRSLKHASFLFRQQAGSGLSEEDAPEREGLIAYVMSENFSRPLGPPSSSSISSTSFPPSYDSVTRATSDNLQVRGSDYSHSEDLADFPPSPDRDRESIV

SMILES	inhibition at 1 µM
FC(F)(F)c1nnc2ccc(-c3ccc(NC(c4ccccc4)C(F)(F)F)cc3)cn12 (centres unmarked) [BHN-123, 4-[3-(trifluoromethyl)[1,2,4]triazolo[4,3-a]pyridin-6-yl]-N-(2,2,2-trifluoro-1-phenylethyl)aniline]	23.4%
CC(C)c1nnc2ccc(-c3cc(F)c(Oc4ccccc4)c(F)c3)nn12 [BHN-201, 6-(3,5-difluoro-4-phenoxyphenyl)-3-(propan-2-yl)[1,2,4]triazolo[4,3-b]pyridazine]	29.7%
FC(F)(F)Oc1ccc(-c2ccc3nnc(C(F)(F)OCc4cccc5ncccc45)n3c2)cc1 [BHN-281, 5-[(difluoro{6-[4-(trifluoromethoxy)phenyl][1,2,4]triazolo[4,3-a]pyridin-3-yl}methoxy)methyl]quinoline]	53.9%
FC(F)(F)Oc1ccc(-c2ccc3nnc(-c4ccccc4)n3c2)cc1 [BHN-21, 3-phenyl-6-[4-(trifluoromethoxy)phenyl][1,2,4]triazolo[4,3-a]pyridine]	65.2%
OCC(F)(F)c1nnc2ccc(C#Cc3ccc(C(F)(F)F)cc3)cn12 [BHN-198, 2,2-difluoro-2-(6-{[4-(trifluoromethyl)phenyl]ethynyl}[1,2,4]triazolo[4,3-a]pyridin-3-yl)ethanol]	17.4%
FC(F)(F)Oc1ccc(-c2ccc3nnc(C(F)(F)OCc4ncccn4)n3c2)cc1 [BHN-245, 3-[difluoro(pyrimidin-2-ylmethoxy)methyl]-6-[4-(trifluoromethoxy)phenyl][1,2,4]triazolo[4,3-a]pyridine]	38.8%
COCC(F)(F)c1nnc2ccc(-c3ccc(OCC(F)(F)F)nc3)cn12 [BHN-144, 3-(1,1-difluoro-2-methoxyethyl)-6-[6-(2,2,2-trifluoroethoxy)pyridin-3-yl][1,2,4]triazolo[4,3-a]pyridine]	36.4%
FC(F)(F)c1nnc2ccc(-c3ccc(Sc4ccccc4)cc3)cn12 [BHN-119, 6-[4-(phenylsulfanyl)phenyl]-3-(trifluoromethyl)[1,2,4]triazolo[4,3-a]pyridine]	70.5%
OC(C1CC1)C(F)(F)c1nnc2ccc(-c3ccc(OC(F)(F)F)cc3)cn12 (centres unmarked) [BHN-166, 1-cyclopropyl-2,2-difluoro-2-{6-[4-(trifluoromethoxy)phenyl][1,2,4]triazolo[4,3-a]pyridin-3-yl}ethanol]	29.5%
FC(F)(F)Oc1ccc(-c2ccc3nnc(C(F)(F)OCc4cn(-c5ccccc5)nn4)n3c2)cc1 [BHN-215, 3-{difluoro[(1-phenyl-1H-1,2,3-triazol-4-yl)methoxy]methyl}-6-[4-(trifluoromethoxy)phenyl][1,2,4]triazolo[4,3-a]pyridine]	36.4%
Fc1cccc(F)c1CCOC(F)(F)c1nnc2ccc(-c3ccc(OC(F)(F)F)cc3)cn12 [BHN-322, 3-{[2-(2,6-difluorophenyl)ethoxy](difluoro)methyl}-6-[4-(trifluoromethoxy)phenyl][1,2,4]triazolo[4,3-a]pyridine]	72.5%
FC(F)(F)COc1ccc(-c2ccc3cnc(C(F)(F)F)n3c2)cn1 [BHN-179, 6-[6-(2,2,2-trifluoroethoxy)pyridin-3-yl]-3-(trifluoromethyl)imidazo[1,5-a]pyridine]	49.7%
COCC(F)(F)c1nnc2ccc(-c3ccc(OC(F)(F)F)cc3C)cn12 [BHN-200, 3-(1,1-difluoro-2-methoxyethyl)-6-[2-methyl-4-(trifluoromethoxy)phenyl][1,2,4]triazolo[4,3-a]pyridine]	40.8%
FC(F)(F)COc1ccc(-c2ccc3cnc(C(F)(F)F)n3c2)cc1 [BHN-28, 6-[4-(2,2,2-trifluoroethoxy)phenyl]-3-(trifluoromethyl)imidazo[1,5-a]pyridine]	46.1%
O=C(NCC(F)(F)c1nnc2ccc(-c3ccc(OC(F)(F)F)cc3)cn12)c1ccccc1 [BHN-243, N-(2,2-difluoro-2-{6-[4-(trifluoromethoxy)phenyl][1,2,4]triazolo[4,3-a]pyridin-3-yl}ethyl)benzamide]	21%
CC(OC(F)(F)c1nnc2ccc(-c3ccc(OC(F)(F)F)cc3)cn12)c1ccc(Cl)cc1Cl (centres unmarked) [BHN-247, 3-{[1-(2,4-dichlorophenyl)ethoxy](difluoro)methyl}-6-[4-(trifluoromethoxy)phenyl][1,2,4]triazolo[4,3-a]pyridine]	74.1%
OC1(COC(F)(F)c2nnc3ccc(-c4ccc(OC(F)(F)F)cc4)cn23)CCC1 [BHN-248, 1-[(difluoro{6-[4-(trifluoromethoxy)phenyl][1,2,4]triazolo[4,3-a]pyridin-3-yl}methoxy)methyl]cyclobutanol]	50.2%
CC#CCOC(F)(F)c1nnc2ccc(-c3ccc(OC(F)(F)F)cc3)cn12 [BHN-293, 3-[(but-2-yn-1-yloxy)(difluoro)methyl]-6-[4-(trifluoromethoxy)phenyl][1,2,4]triazolo[4,3-a]pyridine]	80.6%
Fc1ccccc1Oc1ccc(-c2ccc3nnc(C(F)(F)F)n3c2)cc1 [BHN-112, 6-[4-(2-fluorophenoxy)phenyl]-3-(trifluoromethyl)[1,2,4]triazolo[4,3-a]pyridine]	32.9%
CC(C)c1nnc2ccc(-c3ccc(Oc4ccccc4)cc3)nn12 [BHN-32, 6-(4-phenoxyphenyl)-3-(propan-2-yl)[1,2,4]triazolo[4,3-b]pyridazine]	63.4%
COCC(F)(F)c1nnc2ccc(-c3ccc(Oc4ccc(Cl)cc4)cc3)cn12 [BHN-137, 6-[4-(4-chlorophenoxy)phenyl]-3-(1,1-difluoro-2-methoxyethyl)[1,2,4]triazolo[4,3-a]pyridine]	48.2%

Same assay, conditions: compound at 10 μM; HEK293 cells expressing hNav1.5; late INa generated with 10 μM Tefluthrin (or 50 nM ATX II); read-out: LateINa_10 uM (percent block of late INa)

SMILES	inhibition at 10 µM
CC(C)S(=O)(=O)c1ccc(-c2ccc3nnc(C(F)(F)F)n3c2)cc1 [BHN-68, 6-[4-(propan-2-ylsulfonyl)phenyl]-3-(trifluoromethyl)[1,2,4]triazolo[4,3-a]pyridine]	22%
CS(=O)(=O)Nc1ccccc1-c1nnc2ccc(-c3ccc(OC(F)(F)F)cc3)cn12 [BHN-93, N-(2-{6-[4-(trifluoromethoxy)phenyl][1,2,4]triazolo[4,3-a]pyridin-3-yl}phenyl)methanesulfonamide]	21%
FC(F)c1nnc2cnc(-c3ccc(Oc4ccccc4)cc3)cn12 [BHN-18, 3-(difluoromethyl)-6-(4-phenoxyphenyl)[1,2,4]triazolo[4,3-a]pyrazine]	54.6%
FC(F)(F)Oc1ccc(-c2ccc3nnc(-c4ccccc4)n3c2)cc1 [BHN-21, 3-phenyl-6-[4-(trifluoromethoxy)phenyl][1,2,4]triazolo[4,3-a]pyridine]	86.5%
COC(=O)c1ccc(-c2ccc3nnc(C(F)(F)F)n3c2)cc1 [BHN-46, methyl 4-[3-(trifluoromethyl)[1,2,4]triazolo[4,3-a]pyridin-6-yl]benzoate]	53.9%
FC(F)(F)c1cc(-c2ccc3nnc(C(F)(F)F)n3c2)ccc1Cl [BHN-10, 6-[4-chloro-3-(trifluoromethyl)phenyl]-3-(trifluoromethyl)[1,2,4]triazolo[4,3-a]pyridine]	51.2%
FC(F)(F)COc1ccc(-c2ccc3cnc(C(F)(F)F)n3c2)cc1 [BHN-28, 6-[4-(2,2,2-trifluoroethoxy)phenyl]-3-(trifluoromethyl)imidazo[1,5-a]pyridine]	78.3%
CS(=O)(=O)c1ccc(-c2nnc3ccc(-c4ccc(Oc5ccccc5)cc4)nn23)cc1 [BHN-47, 3-[4-(methylsulfonyl)phenyl]-6-(4-phenoxyphenyl)[1,2,4]triazolo[4,3-b]pyridazine]	50.7%
CS(=O)(=O)Nc1ccc(-c2nnc3ccc(-c4ccc(OC(F)(F)F)cc4)cn23)cc1 [BHN-75, N-(4-{6-[4-(trifluoromethoxy)phenyl][1,2,4]triazolo[4,3-a]pyridin-3-yl}-phenyl)methanesulfonamide]	30.1%
CC(C)c1nnc2ccc(-c3ccc(Oc4ccccc4)cc3)nn12 [BHN-32, 6-(4-phenoxyphenyl)-3-(propan-2-yl)[1,2,4]triazolo[4,3-b]pyridazine]	83.4%
CCC(=O)Nc1cc(-c2ccc(OC(F)(F)F)cc2)cn2c(C)nnc12 [BHN-85, N-{3-methyl-6-[4-(trifluoromethoxy)phenyl][1,2,4]triazolo[4,3-a]pyridin-8-yl}propanamide]	20.5%
